Assay results reported in patent publication US9024044B2, “Heteroarylcarboxylic acid ester derivative” (Ajinomoto Co., Inc., priority 2012, dated 2015).
Counter-ions that a name gives are not always drawn.

What was measured:
Assay type in all cases: biochemical
[1] = target: recombinant human enteropeptidase (Homo sapiens (Human), UniProt P98073); experiment: Measurement of enteropeptidase inhibitory activity; conditions: substrate Gly-Asp-Asp-Asp-Asp-Lys-β-Naphtylamide, Tris-HCl pH 8.0, Dixon plot
Protocol: Measurement of Enteropeptidase Inhibitory Activity
Using a 96 well plate (#3915, Costar), a test compound (25 μL), 400 mM Tris-HCl buffer (pH 8.0, 25 μL) and 0.5 mg/mL fluorescence enzyme substrate (Gly-Asp-Asp-Asp-Asp-Lys-β-Naphtylamide, 25 μL) were mixed, and recombinant human enteropeptidase (R&D Systems, Inc., 25 μL) was added. Using a fluorescence plate reader fmax (Molecular Devices, Inc.), the reaction rate was measured from the time-course changes at excitation wavelength 320 nm and fluorescence wavelength 405 nm. The Ki value was calculated from the concentration of the test compound, reciprocal of reaction rate, and Km value of the enzyme substrate, and by using Dixon plot.

[2] = target: human trypsin; experiment: Measurement of trypsin inhibitory activity; conditions: substrate Boc-Phe-Ser-Arg-AMC, Tris-HCl pH 8.0, Dixon plot
Protocol: (§1) Measurement of Trypsin Inhibitory Activity
(§2) Using a 96 well plate (#3915, Costar), a test compound (25 μL) was mixed with 20 μM fluorescence enzyme substrate (Boc-Phe-Ser-Arg-AMC, 50 μL) mixed with 200 mM Tris-HCl buffer (pH 8.0), and human trypsin (Sigma, 25 μL) was added. Using a fluorescence plate reader fmax (Molecular Devices, Inc.), the reaction rate was measured from the time-course changes at excitation wavelength 355 nm and fluorescence wavelength 460 nm. The Ki value was calculated from the concentration of the test compound, reciprocal of reaction rate, and Km value of the enzyme substrate, and by using Dixon plot.

[3] = target: human trypsin (Homo sapiens, UniProt P07477); experiment: Measurement of trypsin inhibitory activity; conditions: substrate Boc-Phe-Ser-Arg-AMC, Tris-HCl pH 8.0, Dixon plot
Protocol: as §1, §2

recombinant human enteropeptidase, sequence (P98073 whole entry): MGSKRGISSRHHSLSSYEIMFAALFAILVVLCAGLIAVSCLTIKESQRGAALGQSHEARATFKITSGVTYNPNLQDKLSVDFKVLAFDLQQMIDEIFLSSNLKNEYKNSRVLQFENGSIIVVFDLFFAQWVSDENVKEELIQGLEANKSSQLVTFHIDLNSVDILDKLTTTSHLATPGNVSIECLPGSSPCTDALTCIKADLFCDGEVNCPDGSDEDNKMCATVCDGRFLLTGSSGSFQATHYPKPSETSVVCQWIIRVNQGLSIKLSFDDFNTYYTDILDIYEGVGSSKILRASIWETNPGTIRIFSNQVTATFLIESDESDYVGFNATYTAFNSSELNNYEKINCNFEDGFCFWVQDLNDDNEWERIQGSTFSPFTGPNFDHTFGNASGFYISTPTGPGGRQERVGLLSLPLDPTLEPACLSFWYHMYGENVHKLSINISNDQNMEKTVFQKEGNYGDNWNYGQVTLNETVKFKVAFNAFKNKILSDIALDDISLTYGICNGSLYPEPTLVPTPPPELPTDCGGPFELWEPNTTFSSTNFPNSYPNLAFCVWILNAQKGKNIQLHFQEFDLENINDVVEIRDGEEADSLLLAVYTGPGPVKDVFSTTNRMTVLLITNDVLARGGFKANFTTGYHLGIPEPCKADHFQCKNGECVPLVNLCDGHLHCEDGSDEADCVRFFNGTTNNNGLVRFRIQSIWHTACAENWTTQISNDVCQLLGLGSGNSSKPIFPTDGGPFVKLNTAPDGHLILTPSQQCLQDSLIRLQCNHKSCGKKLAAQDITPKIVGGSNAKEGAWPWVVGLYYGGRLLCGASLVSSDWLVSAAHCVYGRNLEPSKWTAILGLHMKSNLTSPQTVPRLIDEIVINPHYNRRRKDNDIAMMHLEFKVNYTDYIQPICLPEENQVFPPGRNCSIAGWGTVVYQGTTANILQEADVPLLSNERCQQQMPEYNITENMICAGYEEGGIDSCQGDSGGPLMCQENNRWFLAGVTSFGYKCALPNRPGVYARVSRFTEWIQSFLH

Ki [1] | Ki [2] | Structure (SMILES) | Ki [3]
0.53 nM | 0.75 nM | CC(C)(Cc1ccc(C(=O)Oc2ccc(C(=N)N)cc2F)s1)C(=O)NCc1nnn[nH]1 [Compound 65] | 
1.2 nM | 3.54 nM | CCC(CC)(Cc1ccc(C(=O)Oc2ccc(C(=N)N)cc2F)s1)C(=O)NCc1nnn[nH]1 [Compound 81] | 
0.98 nM | 5.17 nM | CCC(CC)(Cc1ccc(C(=O)Oc2ccc(C(=N)N)cc2F)s1)C(=O)NCCCCC(=O)O [Compound 62] | 
2.69 nM | 9.27 nM | CCC(CC)(Cc1ccc(C(=O)Oc2ccc(C(=N)N)cc2F)s1)C(=O)NCc1ccc(C(=O)O)cc1 [Compound 53] | 
0.65 nM | 1.93 nM | CC[C@H](NC(=O)C(CC)(CC)Cc1ccc(C(=O)Oc2ccc(C(=N)N)cc2F)s1)C(=O)O [Compound 28] | 
0.49 nM | 1.5 nM | CCCN(CC(=O)O)C(=O)C(C)(C)Cc1ccc(C(=O)Oc2ccc(C(=N)N)cc2F)s1 [Compound 10, N-{3-[5-(4-amidino-2-fluoro-phenoxycarbonyl)thiophen-2-yl]-2,2-dimethylpropionyl}-N-propylglycine hydrochloride] | 
1.33 nM | 4.67 nM | CCC(CC)(Cc1ccc(C(=O)Oc2ccc(C(=N)N)cc2F)s1)C(=O)NC1(C(=O)O)CCC1 [Compound 80] | 
2.9 nM | 3.65 nM | CC(C)(Cc1ccc(C(=O)Oc2ccc(C(=N)N)cc2F)s1)C(=O)NCCC#N [Compound 63] | 
2.41 nM |  | CCC(CC)(Cc1ccc(C(=O)Oc2ccc(C(=N)N)cc2F)s1)C(=O)Nc1ccc(CC(=O)O)cc1 [Compound 48] | 3.35 nM
0.53 nM | 0.92 nM | CC(C)(Cc1ccc(C(=O)Oc2ccc(C(=N)N)cc2F)s1)C(=O)Nc1ccc(O)c(C(=O)O)c1 [Compound 47] | 
0.29 nM | 0.42 nM | CC(C)(Cc1ccc(C(=O)Oc2ccc(C(=N)N)cc2F)s1)C(=O)NCC(=O)O [Compound 3] | 
0.51 nM | 1.49 nM | CC(C)(Cc1ccc(C(=O)Oc2ccc(C(=N)N)cc2F)s1)C(=O)NC1(C(=O)O)CCC1 [Compound 56] | 
1 nM |  | CCC(CC)(Cc1ccc(C(=O)Oc2ccc(C(=N)N)cc2F)s1)C(=O)N1CCC[C@@H]1C(=O)O [Compound 22] | 3.57 nM
1.1 nM | 8.3 nM | CCC(CC)(Cc1ccc(C(=O)Oc2ccc(C(=N)N)cc2F)s1)C(=O)N[C@@H](Cc1ccccc1)C(=O)O [Compound 16] | 
0.67 nM | 1.01 nM | CC(C)(Cc1ccc(C(=O)Oc2ccc(C(=N)N)cc2F)s1)C(=O)NC1(C(=O)O)CC1 [Compound 57] | 
1.81 nM | 3.17 nM | C=CCN(CCS(=O)(=O)O)C(=O)C(C)(C)Cc1ccc(C(=O)Oc2ccc(C(=N)N)cc2F)s1 [Compound 23, N-allyl-N-{3-[5-(4-amidino-2-fluoro-phenoxycarbonyl)-thiophen-2-yl]-2,2-dimethylpropionyl}taurine] | 

Ki [1] | Ki [2] | Structure (SMILES) | Ki [3]
0.87 nM |  | CC(C)(Cc1ccc(C(=O)Oc2ccc(C(=N)N)cc2F)s1)C(=O)N1CCC[C@H]1C(=O)O [Compound 8] | 1.69 nM
1.56 nM | 5.18 nM | CCC(CC)(Cc1ccc(C(=O)Oc2ccc(C(=N)N)cc2F)s1)C(=O)N[C@H](C(=O)O)C(C)C [Compound 13] | 
2.56 nM | 2.73 nM | CCC(CC)(Cc1ccc(C(=O)Oc2ccc(C(=N)N)cc2F)s1)C(=O)N[C@@H]1COC(=O)C1 [Compound 34] | 
3.26 nM | 1.97 nM | CC[C@H](C)[C@@H](CC(=O)O)NC(=O)C(CC)(CC)Cc1ccc(C(=O)Oc2ccc(C(=N)N)cc2F)s1 [Compound 49, N-{3-[5-(4-amidino-2-fluoro-phenoxycarbonyl)thiophen-2-yl]-2,2-diethylpropionyl}-beta-homoisoleucine hydrochloride] | 
1.58 nM | 3.88 nM | CC(C)(Cc1ccc(C(=O)Oc2ccc(C(=N)N)cc2F)s1)C(=O)N1CCC[C@H]1CC(=O)O [Compound 41] | 
0.41 nM |  | CCC(CC)(Cc1ccc(C(=O)Oc2ccc(C(=N)N)cc2F)s1)C(=O)N[C@@H](CO)C(=O)O [Compound 11, N-{3-[5-(4-amidino-2-fluoro-phenoxycarbonyl)thiophen-2-yl]-2,2-diethylpropionyl}-L-serine hydrochloride] | 1.87 nM
0.33 nM |  | CCC(CC)(Cc1ccc(C(=O)Oc2ccc(C(=N)N)cc2F)s1)C(=O)N[C@@H](CC(=O)O)C(=O)O [Compound 19] | 0.82 nM
0.94 nM |  | CCC(CC)(Cc1ccc(C(=O)Oc2ccc(C(=N)N)cc2F)s1)C(=O)N[C@H](CO)C(=O)O [Compound 12] | 1.78 nM
4.97 nM |  | CCC(CC)(Cc1ccc(C(=O)Oc2ccc(C(=N)N)cc2F)s1)C(=O)NCCCCCC(=O)O [Compound 71] | 8.01 nM
1.33 nM |  | CC(C)(Cc1ccc(C(=O)Oc2ccc(C(=N)N)cc2F)s1)C(=O)N1CCC(C(=O)O)CC1 [Compound 26] | 3.1 nM
5.53 nM |  | CCC(CC)(Cc1ccc(C(=O)Oc2ccc(C(=N)N)cc2F)s1)C(=O)NCCC[C@H](N)C(=O)O [Compound 52] | 5.78 nM
2.41 nM |  | CC(C)(Cc1ccc(C(=O)Oc2ccc(C(=N)N)cc2F)s1)C(=O)Nc1ccccc1C(=O)O [Compound 73] | 3.65 nM
0.53 nM |  | CC(C)(Cc1ccc(C(=O)Oc2ccc(C(=N)N)cc2F)s1)C(=O)NCCc1nnn[nH]1 [Compound 64] | 1.6 nM
1.12 nM |  | CCC(CC)(Cc1ccc(C(=O)Oc2ccc(C(=N)N)cc2F)s1)C(=O)NC1(C(=O)O)CC1 [Compound 79] | 2.19 nM
5.27 nM |  | CC(C)(Cc1ccc(C(=O)Oc2ccc(C(=N)N)cc2F)s1)C(=O)N1CC(F)(F)C1 [Compound 46] | 3.89 nM
1.53 nM |  | CC(C)(Cc1ccc(C(=O)Oc2ccc(C(=N)N)cc2F)s1)C(=O)N[C@H]1CC[C@H](C(=O)O)CC1 [Compound 78] | 2.57 nM

Structure (SMILES) | Ki [1] | Ki [2] | Ki [3]
C=CCN(CC(=O)O)C(=O)C(C)(C)Cc1ccc(C(=O)Oc2ccc(C(=N)N)cc2F)s1 [Compound 5] | 0.24 nM |  | 0.5 nM
COc1ncccc1NC(=O)C(C)(C)Cc1ccc(C(=O)Oc2ccc(C(=N)N)cc2F)s1 [Compound 51] | 3.75 nM |  | 1.87 nM
CCC(CC)(Cc1ccc(C(=O)Oc2ccc(C(=N)N)cc2F)s1)C(=O)N[C@@H](CCC(N)=O)C(=O)O [Compound 42] | 1.69 nM |  | 3.88 nM
CCC(CC)(Cc1ccc(C(=O)Oc2ccc(C(=N)N)cc2F)s1)C(=O)N[C@H](CCC(=O)O)C(=O)O [Compound 43] | 0.42 nM | 1.96 nM | 
CCC(CC)(Cc1ccc(C(=O)Oc2ccc(C(=N)N)cc2F)s1)C(=O)O [Compound 18, 3-[5-(4-amidino-2-fluorophenoxycarbonyl)thiophen-2-yl]-2,2-diethylpropanoic acid trifluoroacetic acid salt] | 1.24 nM |  | 2.49 nM
CC(C)(Cc1ccc(C(=O)Oc2ccc(C(=N)N)cc2F)s1)C(=O)Nc1cc(C(=O)O)ccc1C(=O)O [Compound 75] | 0.39 nM |  | 3.72 nM
CC(C)(Cc1ccc(C(=O)Oc2ccc(C(=N)N)cc2F)s1)C(=O)N1CCc2ccc(C(=O)O)cc2C1 [Compound 50] | 3.46 nM |  | 3.49 nM
N=C(N)c1ccc(OC(=O)c2ccc(CC3(C(=O)N[C@@H](CC(=O)O)C(=O)O)CCC3)s2)c(F)c1 [Compound 1, N-[1{5-(4-amidino-2-fluorophenoxycarbonyl)thiophen-2-ylmethyl}-cyclobutylcarbonyl]-1-aspartic acid trifluoroacetic acid salt] | 0.14 nM |  | 0.61 nM
CC(C)(Cc1ccc(C(=O)Oc2ccc(C(=N)N)cc2F)s1)C(=O)N1CC(C(=O)O)C1 [Compound 72] | 0.63 nM |  | 1.85 nM
COc1ccc(NC(=O)C(C)(C)Cc2ccc(C(=O)Oc3ccc(C(=N)N)cc3F)s2)cn1 [Compound 45] | 4.13 nM |  | 3.36 nM
CC(C)(Cc1ccc(C(=O)Oc2ccc(C(=N)N)cc2F)s1)C(=O)N[C@@H](C(=O)O)c1ccc(O)cc1 [Compound 69] | 0.72 nM |  | 1.14 nM
CC(C)(Cc1ccc(C(=O)Oc2ccc(C(=N)N)cc2F)s1)C(=O)Nc1cccnc1 [Compound 39] | 7.56 nM |  | 3.6 nM
CC(C)(Cc1ccc(C(=O)Oc2ccc(C(=N)N)cc2F)s1)C(=O)N[C@@H](C(=O)O)C1CCCCC1 [Compound 36] | 4.7 nM |  | 3.07 nM
CCC(CC)(Cc1ccc(C(=O)Oc2ccc(C(=N)N)cc2F)s1)C(=O)Nc1cc(C(=O)O)cc(C(=O)OC)c1 [Compound 67] | 3.73 nM |  | 4.4 nM
CC(C)(Cc1ccc(C(=O)Oc2ccc(C(=N)N)cc2F)s1)C(=O)N[C@@H](CO)C(=O)O [Compound 4] | 0.46 nM |  | 0.75 nM
CC(C)(Cc1ccc(C(=O)Oc2ccc(C(=N)N)cc2F)s1)C(=O)N1C[C@@H]1C(=O)O [Compound 54] | 1.76 nM |  | 1.53 nM
CC(C)(Cc1ccc(C(=O)Oc2ccc(C(=N)N)cc2F)s1)C(=O)Nc1ccc(C(=O)O)c(C(=O)O)c1 [Compound 68] | 0.24 nM |  | 0.21 nM
